Test results from PubChem BioAssay (NCI).
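Growth conditions: 96-well plates. Treatment: test compound, 48 hours, 5 concentrations. Analysis: linear interpolation between bracketing concentrations; unreached endpoints set to highest concentration. GI50 marks 50% less growth. TGI is the concentration that stops growth completely.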

Experiments:
Assay in all cases: NCI tumour cell line growth inhibition, 48 h
RXF 393 renal = test system: RXF 393 renal
A549 NSCLC = test system: A549 NSCLC
TK-10 renal = test system: TK-10 renal
PC-3 prostate = test system: PC-3 prostate
SK-MEL-28 melanoma = test system: SK-MEL-28 melanoma
SF-539 CNS = test system: SF-539 CNS
M14 melanoma = test system: M14 melanoma
UACC-62 melanoma = test system: UACC-62 melanoma
A498 renal = test system: A498 renal
SK-OV-3 ovarian = test system: SK-OV-3 ovarian
NCI/ADR-RES ovarian = test system: NCI/ADR-RES ovarian
BT-549 breast = test system: BT-549 breast
SNB-75 CNS = test system: SNB-75 CNS
HL-60(TB) leukemia = test system: HL-60(TB) leukemia

SMILES: NC(N)=Nc1ccc(Oc2cccc(Nc3cccc(C(F)(F)F)c3)c2)cn1
- GI50 (RXF 393 renal): 1760 nM
- TGI (RXF 393 renal): 3390 nM
- GI50 (A549 NSCLC): 1880 nM
- TGI (A549 NSCLC): 4420 nM
- GI50 (TK-10 renal): 1850 nM
- TGI (TK-10 renal): 3630 nM
- GI50 (PC-3 prostate): 1470 nM
- TGI (PC-3 prostate): 2880 nM
- GI50 (SK-MEL-28 melanoma): 1700 nM
- TGI (SK-MEL-28 melanoma): 3160 nM
- GI50 (SF-539 CNS): 1720 nM
- TGI (SF-539 CNS): 3220 nM
- GI50 (M14 melanoma): 1760 nM
- TGI (M14 melanoma): 3330 nM
- GI50 (UACC-62 melanoma): 1790 nM
- TGI (UACC-62 melanoma): 3400 nM
- GI50 (A498 renal): 1510 nM
- TGI (A498 renal): 3020 nM
- GI50 (SK-OV-3 ovarian): 2080 nM
- TGI (SK-OV-3 ovarian): 4270 nM
- GI50 (NCI/ADR-RES ovarian): 4850 nM
- TGI (NCI/ADR-RES ovarian): 37600 nM
- GI50 (BT-549 breast): 1760 nM
- TGI (BT-549 breast): 3300 nM
- GI50 (SNB-75 CNS): 1370 nM
- TGI (SNB-75 CNS): 2740 nM
- GI50 (HL-60(TB) leukemia): 2040 nM
- TGI (HL-60(TB) leukemia): 4360 nM
